US20250127162A1, “METHODS AND COMPOSITIONS FOR CONTROLLING PESTS IN RICE” (Globachem NV, priority 2022, published 2025)

How the values were obtained:
Rice [1] = experiment: Phytotoxicity PHYGEN on rice (Example 1, Trials 3-4, Thailand); assay type: in vivo; design: key: % leaf necrosis compared with untreated plants
Excerpt: (§1) “Low Phytotoxicity” of pelargonic acid, as used herein means that the toxic effect on plants is absent or at such a level so as not to adversely impact the growth and/or yield of the plant under a given set of test conditions, e.g., at a given concentration of pelargonic acid. Phytotoxic effects may be measured in a number of different ways, for example, according to the principals set out in OEPP/EPPO Bulletin (2014) 44 (3), 265-273 “PP 1/135 (4) Phytotoxicity assessment”. The phytotoxic effect on plants may be assessed visually as a function of the percentage of discoloration to the leaves and/or the appearance of necrosis. When the pelargonic acid compositions are applied to the foliage of the rice plants in accordance with the teachings herein, will typically result in a level of phytotoxicity of less than 20%, preferably less than 15%, more preferably less than 10% necrosis of the leaves in comparison to untreated plants. Preferred uses of the invention will typically result in phytotoxicity of 7% or less, whilst the most preferred uses will typically result in phytotoxicity of 5% or less. The above values are approximate as any purely visual assessment is likely to contain a degree of subjectivity.
(§2) All applications were made with an EC formulation containing 650 g/L of pelargonic acid (e.g., 685 g/L of 95% purity pelargonic acid), an anionic emulsifier and a branched fatty acid ester solvent.
(§3) Application A was made to the crops at the beginning of infestations; for these trials, Stage BBCH 59; Application B was made 14 days after Application A.
Trial 3 was conducted in Thailand using a water volume of 500 L/ha of water per application unless otherwise indicated. Insect Damage (DAMINS %), Insect Damage (Number) and Phytotoxicity were assessed at various treatment evaluation intervals.
Trial 4 was conducted in Thailand using a water volume of 500 L/ha of water per application unless otherwise indicated. Insect Damage (DAMINS %), Insect Damage (Number) and Phytotoxicity were assessed at various treatment evaluation intervals.

Rice [2] = experiment: Phytotoxicity on rice (Example 1, Trials 1-2, Spain); assay type: in vivo; design: key: % leaf necrosis/discoloration vs untreated plants; details: applications AB
Excerpt: as §1, §2, §3
(§4) Trial 1 was conducted in Spain using a water volume of 300 L/ha of water per application unless otherwise indicated. Pest Incidence/Number of Insects (PESINC) and Pest Severity (PESSEV) as a Percent of Untreated Check (% UNCK) as well as Phytotoxicity were assessed at various treatment evaluation intervals.
as §4, with “2” for “1”

CCCCCCCCC(=O)O [PA 650 g/ha, pelargonic acid]
0: Phytotoxicity (PHYGEN) (Rice [1]; Trial 3, 0 DAA, water volume 200 L/ha) | Phytotoxicity (PHYGEN) (Rice [1]; Trial 3, 0 DAA, water volume 500 L/ha) | Phytotoxicity (PHYGEN) (Rice [1]; Trial 3, 0 DAB, water volume 200 L/ha) | Phytotoxicity (PHYGEN) (Rice [1]; Trial 3, 0 DAB, water volume 500 L/ha) | Phytotoxicity (PHYGEN) (Rice [1]; Trial 3, 7 DAA, water volume 200 L/ha) | Phytotoxicity (PHYGEN) (Rice [1]; Trial 3, 7 DAA, water volume 500 L/ha) | Phytotoxicity (PHYGEN) (Rice [1]; Trial 3, 7 DAB, water volume 200 L/ha) | Phytotoxicity (PHYGEN) (Rice [1]; Trial 3, 7 DAB, water volume 500 L/ha) | Phytotoxicity (PHYGEN) (Rice [1]; Trial 3, 10 DAA, water volume 200 L/ha) | Phytotoxicity (PHYGEN) (Rice [1]; Trial 3, 10 DAA, water volume 500 L/ha) | Phytotoxicity (PHYGEN) (Rice [1]; Trial 3, 10 DAB, water volume 200 L/ha) | Phytotoxicity (PHYGEN) (Rice [1]; Trial 3, 10 DAB, water volume 500 L/ha) | Phytotoxicity (PHYGEN) (Rice [1]; Trial 3, 14 DAB, water volume 200 L/ha) | Phytotoxicity (PHYGEN) (Rice [1]; Trial 3, 14 DAB, water volume 500 L/ha) | Phytotoxicity (PHYGEN) (Rice [1]; Trial 3, 21 DAB, water volume 200 L/ha) | Phytotoxicity (PHYGEN) (Rice [1]; Trial 3, 21 DAB, water volume 500 L/ha) | Phytotoxicity (PHYGEN) (Rice [1]; Trial 4, 0 DAA, water volume 200 L/ha) | Phytotoxicity (PHYGEN) (Rice [1]; Trial 4, 0 DAA, water volume 500 L/ha) | Phytotoxicity (PHYGEN) (Rice [1]; Trial 4, 0 DAB, water volume 200 L/ha) | Phytotoxicity (PHYGEN) (Rice [1]; Trial 4, 0 DAB, water volume 500 L/ha) | Phytotoxicity (PHYGEN) (Rice [1]; Trial 4, 7 DAA, water volume 200 L/ha) | Phytotoxicity (PHYGEN) (Rice [1]; Trial 4, 7 DAA, water volume 500 L/ha) | Phytotoxicity (PHYGEN) (Rice [1]; Trial 4, 7 DAB, water volume 200 L/ha) | Phytotoxicity (PHYGEN) (Rice [1]; Trial 4, 7 DAB, water volume 500 L/ha) | Phytotoxicity (PHYGEN) (Rice [1]; Trial 4, 10 DAA, water volume 200 L/ha) | Phytotoxicity (PHYGEN) (Rice [1]; Trial 4, 10 DAA, water volume 500 L/ha) | Phytotoxicity (PHYGEN) (Rice [1]; Trial 4, 10 DAB, water volume 200 L/ha) | Phytotoxicity (PHYGEN) (Rice [1]; Trial 4, 10 DAB, water volume 500 L/ha) | Phytotoxicity (PHYGEN) (Rice [1]; Trial 4, 14 DAB, water volume 200 L/ha) | Phytotoxicity (PHYGEN) (Rice [1]; Trial 4, 14 DAB, water volume 500 L/ha) | Phytotoxicity (PHYGEN) (Rice [1]; Trial 4, 21 DAB, water volume 200 L/ha) | Phytotoxicity (PHYGEN) (Rice [1]; Trial 4, 21 DAB, water volume 500 L/ha) | Phytotoxicity (Rice [2]; Trial 1 (PESINC table), water volume 150 L/ha) | Phytotoxicity (Rice [2]; Trial 1 (PESINC table), water volume 300 L/ha) | Phytotoxicity (Rice [2]; Trial 1 (PESSEV table), water volume 150 L/ha) | Phytotoxicity (Rice [2]; Trial 1 (PESSEV table), water volume 300 L/ha) | Phytotoxicity (Rice [2]; Trial 2 (PESINC table), water volume 150 L/ha) | Phytotoxicity (Rice [2]; Trial 2 (PESINC table), water volume 300 L/ha) | Phytotoxicity (Rice [2]; Trial 2 (PESSEV table), water volume 150 L/ha) | Phytotoxicity (Rice [2]; Trial 2 (PESSEV table), water volume 300 L/ha)
